Patent US20090317466A1, “Fixed dose pharmaceutical composition comprising hyroxyurea and didanosine” (priority 2008, published 2009)

Assay: Stability of hydroxyurea on removal of citric acid from the composition
Format: physicochemical
Conditions: removal of the stabilizer citric acid from the composition
From the text: The commercially available hydroxyurea tablets contain citric acid.

stability of hydroxyurea: not significantly affected
SMILES: NC(=O)NO [hydroxyurea]
